# Results reported in patent publication US9580444B2, “Polycyclic pyrazolinone derivative and herbicide comprising same as effective component thereof” (priority 2013, dated 2017).
# How the values were obtained:
# Assay type in all cases: in vivo
# [1] = system: Chenopodium album (common lambsquarters); assay: Test Example-4: herbicidal effect by a foliage treatment after weeds are generated under upland field conditions; conditions: 500 g a.i/ha, foliage treatment after emergence, about 14 days after treatment, score 0-5
# Source text: (§1) Using the formulation prepared according to the methods described above, the herbicidal effect of the bicyclic pyrazolinone derivative of the invention according to the methods shown in Test Examples below was examined. The herbicidal effect with respect to the test weeds or the phytotoxicity with respect to the test crops was examined according to the following criteria, and evaluated in six stage scores of 0 to 5. A vat having an area of 65 cm^2 and a depth of 2 cm was filled with upland soil, then, seeds of Amaranthus viridis (green amaranthus), Abutilon theophrasti (velvetleaf), Chenopodium album (common lambsquarters), […]. While watering was suitably performed on there, the seeds were grown for 14 days. A wettable powder or an emulsifiable concentrate of the compound of the present invention prepared according to Formulation Example was diluted, and a spray treatment was uniformly performed on the foliage portion of the plant so as to be a predetermined dosage in the amount of water of 4000 L per hectare. The herbicidal effect with respect to the test weeds and the phytotoxicity with respect to corn about 14 days after the treatment were evaluated according to the evaluation criteria in six stages of 0 to 5 described above.
# [2] = system: Amaranthus viridis (green amaranthus); assay: as above; conditions: 500 g a.i/ha, foliage treatment after emergence, about 14 days after treatment, score 0-5
# Source text: as §1
# [3] = system: Abutilon theophrasti (velvetleaf); assay: as above; conditions: 500 g a.i/ha, foliage treatment after emergence, about 14 days after treatment, score 0-5
# Source text: as §1
# corn = assay: Test Example-4: phytotoxicity by a foliage treatment after weeds are generated under upland field conditions; conditions: 500 g a.i/ha, foliage treatment after emergence, about 14 days after treatment, score 0-5
# Source text: as §1
# [4] = system: other annual broad leaf weeds (Lindernia procumbens, Rotala indica, Elatine triandra); assay: Test Example-1: herbicidal effect by a treatment before weeds are generated under submerged conditions; conditions: 500 g a.i/ha, pre-emergence treatment, about 15 days after treatment, score 0-5
# Outline: (§2)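 Paddy-soil cups were puddled, sown with the weeds and kept submerged. On the seeding day, diluted wettable powder or emulsifiable concentrate was applied as a submersing treatment at a predetermined dosage. Herbicidal effect was scored 0–5 about 15 days after treatment.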
# [5] = system: Scirpus juncoides (bulrush); assay: as above; conditions: 500 g a.i/ha, pre-emergence treatment, about 15 days after treatment, score 0-5
# Outline: as §2
# [6] = system: Echinochloa oryzicola (barnyard grass); assay: as above; conditions: 500 g a.i/ha, pre-emergence treatment, about 15 days after treatment, score 0-5
# Outline: as §2
# [7] = system: Monochoria vaginalis (monochoria); assay: as above; conditions: 500 g a.i/ha, pre-emergence treatment, about 15 days after treatment, score 0-5
# Outline: as §2
# [8] = system: Cyperus difformis (smallflower umbrella plant); assay: as above; conditions: 500 g a.i/ha, pre-emergence treatment, about 15 days after treatment, score 0-5
# Outline: as §2
# [9] = system: Eleocharis acicularis (needle spikerush); assay: as above; conditions: 500 g a.i/ha, pre-emergence treatment, about 15 days after treatment, score 0-5
# Outline: as §2
Compound,Herbicidal effect Chenopodium album [1],Herbicidal effect Amaranthus viridis [2],Herbicidal effect Abutilon theophrast [3],Phytotoxicity Corn (corn),Herbicidal effect Broadleaf weed [4],Herbicidal effect Scirpus juncoides [5],Herbicidal effect Echinochloa oryzicola [6],Herbicidal effect Monochoria vaginalis [7],Herbicidal effect Cyperus difformis [8],Herbicidal effect Eleocharis acicularis [9]
O=c1c(-c2ccc(Cl)c(OC3CCCC3)c2)c(Cl)n2n1CCCC2 [Example 1-52],5 (Herbicidal effect/phytotoxicity was 90% or greater),5 (Herbicidal effect/phytotoxicity was 90% or greater),5 (Herbicidal effect/phytotoxicity was 90% or greater),0 (Herbicidal effect/phytotoxicity was 0% to 10%),5 (Herbicidal effect/phytotoxicity was 90% or greater),5 (Herbicidal effect/phytotoxicity was 90% or greater),5 (Herbicidal effect/phytotoxicity was 90% or greater),5 (Herbicidal effect/phytotoxicity was 90% or greater),5 (Herbicidal effect/phytotoxicity was 90% or greater),5 (Herbicidal effect/phytotoxicity was 90% or greater)
C#CCOc1cc(-c2c(Cl)n3n(c2=O)CCCC3)ccc1Cl [Example 1-62],5 (Herbicidal effect/phytotoxicity was 90% or greater),5 (Herbicidal effect/phytotoxicity was 90% or greater),5 (Herbicidal effect/phytotoxicity was 90% or greater),0 (Herbicidal effect/phytotoxicity was 0% to 10%),5 (Herbicidal effect/phytotoxicity was 90% or greater),5 (Herbicidal effect/phytotoxicity was 90% or greater),5 (Herbicidal effect/phytotoxicity was 90% or greater),5 (Herbicidal effect/phytotoxicity was 90% or greater),5 (Herbicidal effect/phytotoxicity was 90% or greater),5 (Herbicidal effect/phytotoxicity was 90% or greater)
C#CCOc1cc(-c2c(Cl)n3n(c2=O)CCCCC3)ccc1Cl [Example 1-63],5 (Herbicidal effect/phytotoxicity was 90% or greater),5 (Herbicidal effect/phytotoxicity was 90% or greater),5 (Herbicidal effect/phytotoxicity was 90% or greater),1 (Herbicidal effect/phytotoxicity was 10% to 30%),5 (Herbicidal effect/phytotoxicity was 90% or greater),5 (Herbicidal effect/phytotoxicity was 90% or greater),5 (Herbicidal effect/phytotoxicity was 90% or greater),5 (Herbicidal effect/phytotoxicity was 90% or greater),5 (Herbicidal effect/phytotoxicity was 90% or greater),5 (Herbicidal effect/phytotoxicity was 90% or greater)
COc1cc(-c2c(Cl)n3n(c2=O)CCCC3)c(F)cc1F [Example 1-87],5 (Herbicidal effect/phytotoxicity was 90% or greater),5 (Herbicidal effect/phytotoxicity was 90% or greater),5 (Herbicidal effect/phytotoxicity was 90% or greater),2 (Herbicidal effect/phytotoxicity was 30% to 50%),5 (Herbicidal effect/phytotoxicity was 90% or greater),5 (Herbicidal effect/phytotoxicity was 90% or greater),5 (Herbicidal effect/phytotoxicity was 90% or greater),5 (Herbicidal effect/phytotoxicity was 90% or greater),5 (Herbicidal effect/phytotoxicity was 90% or greater),5 (Herbicidal effect/phytotoxicity was 90% or greater)
COCOc1cc(-c2c(Cl)n3n(c2=O)CCCC3)c(F)cc1F [Example 1-90],5 (Herbicidal effect/phytotoxicity was 90% or greater),5 (Herbicidal effect/phytotoxicity was 90% or greater),5 (Herbicidal effect/phytotoxicity was 90% or greater),3 (Herbicidal effect/phytotoxicity was 50% to 70%),5 (Herbicidal effect/phytotoxicity was 90% or greater),5 (Herbicidal effect/phytotoxicity was 90% or greater),5 (Herbicidal effect/phytotoxicity was 90% or greater),5 (Herbicidal effect/phytotoxicity was 90% or greater),5 (Herbicidal effect/phytotoxicity was 90% or greater),5 (Herbicidal effect/phytotoxicity was 90% or greater)
C=CCOc1cc(-c2c(Cl)n3n(c2=O)CCCC3)c(F)cc1F [Example 1-101],5 (Herbicidal effect/phytotoxicity was 90% or greater),5 (Herbicidal effect/phytotoxicity was 90% or greater),5 (Herbicidal effect/phytotoxicity was 90% or greater),3 (Herbicidal effect/phytotoxicity was 50% to 70%),5 (Herbicidal effect/phytotoxicity was 90% or greater),5 (Herbicidal effect/phytotoxicity was 90% or greater),5 (Herbicidal effect/phytotoxicity was 90% or greater),5 (Herbicidal effect/phytotoxicity was 90% or greater),5 (Herbicidal effect/phytotoxicity was 90% or greater),5 (Herbicidal effect/phytotoxicity was 90% or greater)
C#CCOc1cc(-c2c(Cl)n3n(c2=O)CCCC3)c(F)cc1F [Example 1-113],5 (Herbicidal effect/phytotoxicity was 90% or greater),5 (Herbicidal effect/phytotoxicity was 90% or greater),5 (Herbicidal effect/phytotoxicity was 90% or greater),3 (Herbicidal effect/phytotoxicity was 50% to 70%),5 (Herbicidal effect/phytotoxicity was 90% or greater),5 (Herbicidal effect/phytotoxicity was 90% or greater),5 (Herbicidal effect/phytotoxicity was 90% or greater),5 (Herbicidal effect/phytotoxicity was 90% or greater),5 (Herbicidal effect/phytotoxicity was 90% or greater),5 (Herbicidal effect/phytotoxicity was 90% or greater)
C#CC(C)Oc1cc(-c2c(Cl)n3n(c2=O)CCCC3)c(F)cc1F (stereo not shown) [Example 1-114],5 (Herbicidal effect/phytotoxicity was 90% or greater),5 (Herbicidal effect/phytotoxicity was 90% or greater),5 (Herbicidal effect/phytotoxicity was 90% or greater),3 (Herbicidal effect/phytotoxicity was 50% to 70%),5 (Herbicidal effect/phytotoxicity was 90% or greater),5 (Herbicidal effect/phytotoxicity was 90% or greater),5 (Herbicidal effect/phytotoxicity was 90% or greater),5 (Herbicidal effect/phytotoxicity was 90% or greater),5 (Herbicidal effect/phytotoxicity was 90% or greater),5 (Herbicidal effect/phytotoxicity was 90% or greater)
CC#CCOc1cc(-c2c(Cl)n3n(c2=O)CCCC3)c(F)cc1F [Example 1-115],5 (Herbicidal effect/phytotoxicity was 90% or greater),5 (Herbicidal effect/phytotoxicity was 90% or greater),5 (Herbicidal effect/phytotoxicity was 90% or greater),3 (Herbicidal effect/phytotoxicity was 50% to 70%),5 (Herbicidal effect/phytotoxicity was 90% or greater),5 (Herbicidal effect/phytotoxicity was 90% or greater),5 (Herbicidal effect/phytotoxicity was 90% or greater),5 (Herbicidal effect/phytotoxicity was 90% or greater),5 (Herbicidal effect/phytotoxicity was 90% or greater),5 (Herbicidal effect/phytotoxicity was 90% or greater)
O=c1c(-c2cc(NS(=O)(=O)c3ccccc3Cl)c(Cl)cc2F)c(Cl)n2n1CCCC2 [Example 5-63],5 (Herbicidal effect/phytotoxicity was 90% or greater),5 (Herbicidal effect/phytotoxicity was 90% or greater),5 (Herbicidal effect/phytotoxicity was 90% or greater),0 (Herbicidal effect/phytotoxicity was 0% to 10%),–,–,–,–,–,–
